{"source": "patent US20180110799A1", "about": "“Compositions and Methods for the Inhibition of Chondrogenesis” (The Children's Hospital of Philadelphia, priority 2014, published 2018)", "key": {"heparanase mRNA": {"test_system": "heparanase mRNA", "experiment": "Semi-quantitative RT-PCR of heparanase mRNA in micromass cultures", "type": "cell-based, mouse", "method": "(§1) Micromass cultures were prepared from the mesenchymal cells of E11.5 mouse embryo limb buds (Ahrens et al. (1979) Dev. Biol., 69:436-50). Dissociated cells were suspended at a concentration of 5×10^6 cells/ml in DMEM containing 3% fetal bovine serum and antibiotics. Micromass cultures were initiated by spotting 20 μl of the cell suspensions (1.5×10^5 cells) onto the surface of 24-well tissue culture dishes. After a 90-minute incubation at 37° C. in a humidified CO2 incubator to allow for cell attachment, the cultures were supplied with 0.25 ml of medium. After 24 hours, medium supplemented with the indicated concentrations of Surfen (bis-2-methyl-4-aminoquinolyl-6-carbamide), bacterial heparitinase III (Sigma), recombinant human BMP2 (R&D Systems), recombinant human heparanase, or roneparstat (Sigma-Tau Research S.A.). Fresh reagents (drug and/or protein) were given with medium change every other day. Equivalent amounts of vehicle were added to control cultures. Cultures were stained with Alcian blue (pH 1.0) after four and six days to monitor chondrogenic cell differentiation by standard methods. […]\n(§2) Total RNA was extracted from cells by the guanidine phenol method using TRIzol® reagent (Invitrogen) according to the manufacturer's protocols and measured using a NanoDrop. […] Band intensities were quantified by computer-assisted image analysis (ImageQuant™ TL, GE Healthcare)."}, "endogenous heparanase [1]": {"test_system": "endogenous heparanase", "experiment": "Immunoblot of endogenous heparanase protein in ATDC5 cultures", "type": "cell-based, mouse", "conditions": "compared with the micromass response", "method": "ATDC5 cells, derived from mouse embryonal carcinoma, were cultured in 10 cm dishes with a 1:1 mixture of Dulbecco's modified Eagle's medium and Ham's F-12 (Life Technologies) supplemented with 5% fetal bovine serum (ATCC), 10 μg/ml human transferrin (Mediatech), […] sodium selenite (Mediatech), and 20 μg/ml insulin at 37° C. under 5% CO2. Experiments were conducted once cells reached confluence.\nATDC5 cells were grown to 100% confluence in 6-well plates and treated with indicated concentrations of Surfen, bis-2-methyl-4-amino-quinolyl-6-carbamide. Micromass cultures were treated with control vehicle, Surfen, human heparanase, roneparstat, or rhBMP2. At specified time points, total cellular proteins were harvested in SDS-PAGE sample buffer, electrophoresed on 4-15% SDS-Bis-Tris gels (40 μg per lane) and transferred to PVDF membranes (Invitrogen). Membranes were incubated overnight at 4° C. with dilutions of antibodies against phospho-Smad1/5/8 (Cell Signaling Technology 9511, 1:1000), Smad1 (Abcam 63439, 1:500) or human heparanase (Abcam 59787, 1:750). Enhanced chemiluminescent immunoblotting detection system (Pierce) was used to detect the antigen antibody complexes. The membranes were re-blotted with antibodies to α-tubulin (Sigma T-5168, 1:2000) for normalization, and band intensities were quantified by computer-assisted image analysis."}, "endogenous heparanase [2]": {"test_system": "endogenous heparanase", "experiment": "Immunoblot of endogenous heparanase protein in micromass cultures", "type": "cell-based, mouse", "protocol": "ATDC5 cells were grown to 100% confluence in 6-well plates and treated with indicated concentrations of Surfen, bis-2-methyl-4-amino-quinolyl-6-carbamide. […] The membranes were re-blotted with antibodies to α-tubulin (Sigma T-5168, 1:2000) for normalization, and band intensities were quantified by computer-assisted image analysis."}, "[3]": {"test_system": "ADTC5 chondrogenic cell line", "conditions": "Brown et al. 2008; cited from earlier work"}, "[4]": {"test_system": "myeloma and sarcoma cells", "conditions": "mouse models; Ritchie 2011, Cassinelli 2013; cited from earlier work"}, "[5]": {"test_system": "collagen II (ColII), aggrecan (Agg) and Runx2", "experiment": "Semi-quantitative RT-PCR of chondrogenic marker genes in micromass cultures", "type": "cell-based, mouse", "conditions": "micromass day 4 and 6", "method": "(§3) Micromass cultures were prepared from the mesenchymal cells of E11.5 mouse embryo limb buds (Ahrens et al. (1979) Dev. Biol., 69:436-50). Dissociated cells were suspended at a concentration of 5×10^6 cells/ml in DMEM containing 3% fetal bovine serum and antibiotics. Micromass cultures were initiated by spotting 20 μl of the cell suspensions […] onto the surface of 24-well tissue culture dishes. After a 90-minute incubation at 37° C. in a humidified CO2 incubator to allow for cell attachment, the cultures were supplied with 0.25 ml of medium. After 24 hours, medium supplemented with the indicated concentrations of Surfen (bis-2-methyl-4-aminoquinolyl-6-carbamide), bacterial heparitinase III (Sigma), recombinant human BMP2 (R&D Systems), recombinant human heparanase, or roneparstat (Sigma-Tau Research S.A.). Fresh reagents (drug and/or protein) were given with medium change every other day. Equivalent amounts of vehicle were added to control cultures. Cultures were stained with Alcian blue (pH 1.0) after four and six days to monitor chondrogenic cell differentiation by standard methods. Micromass analysis was performed using ImageJ. Images were made binary under an RGB threshold, and “Particle Analysis” was utilized to measure nodule size, number, and Alcian blue positive area.\nTotal RNA was extracted from cells by the guanidine phenol method using TRIzol® reagent (Invitrogen) according to the manufacturer's protocols and measured using a NanoDrop. One μg of total RNA was reverse transcribed using the SuperScript® III First-Strand Synthesis System (Life Technologies). Band intensities for semiquantitative PCR were normalized to GAPDH and compared while band intensities and cycle numbers were linear. […] Band intensities were quantified by computer-assisted image analysis (ImageQuant™ TL, GE Healthcare)."}, "[6]": {"conditions": "mouse models of diabetic nephropathy; cited from earlier work"}, "[7]": {"conditions": "literature; cited from earlier work"}, "heparanase": {"molecular_target": "T1, heparanase (Homo sapiens, UniProt Q9Y251)", "T1 sequence (Q9Y251 158-543 limits assumed)": "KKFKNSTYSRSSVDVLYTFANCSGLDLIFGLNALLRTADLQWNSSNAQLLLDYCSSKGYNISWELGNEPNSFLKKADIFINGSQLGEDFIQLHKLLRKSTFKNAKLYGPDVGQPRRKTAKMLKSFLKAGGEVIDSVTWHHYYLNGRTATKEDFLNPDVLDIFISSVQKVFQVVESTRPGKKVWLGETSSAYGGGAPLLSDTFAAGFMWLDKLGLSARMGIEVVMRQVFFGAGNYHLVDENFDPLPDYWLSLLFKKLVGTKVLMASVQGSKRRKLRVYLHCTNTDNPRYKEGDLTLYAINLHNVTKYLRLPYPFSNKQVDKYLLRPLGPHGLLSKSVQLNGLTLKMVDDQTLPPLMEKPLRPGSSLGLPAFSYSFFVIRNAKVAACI", "T1 sequence (Q9Y251 36-109 limits assumed)": "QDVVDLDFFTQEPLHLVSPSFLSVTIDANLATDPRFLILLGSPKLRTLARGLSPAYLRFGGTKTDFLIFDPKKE", "conditions": "Ritchie et al. 2011; cited from earlier work"}, "[8]": {"test_system": "mesenchymal cells of E11.5 mouse embryo limb buds", "experiment": "Limb bud micromass chondrogenesis, alcian blue staining", "type": "cell-based", "conditions": "three concentrations up to 20 μg/ml; dose-dependent; day 4 and 6", "method": "as §3"}, "[9]": {"test_system": "mesenchymal cells of E11.5 mouse embryo limb buds", "experiment": "Micromass diameter (proliferation/migration of peripheral cells)", "type": "cell-based", "conditions": "day 4 and day 6", "method": "as §1, with “S.A.).” for “S.A.). Fresh reagents (drug and/or protein) were given with medium change every other day. Equivalent amounts of vehicle were added to control cultures. Cultures were stained with Alcian blue (pH 1.0) after four and six days to monitor chondrogenic cell differentiation by standard methods.”\n(§4) ATDC5 cells were treated at day 0 with human heparanase (400 ng/ml) or a vehicle control. […] DNA isolation was performed using TRIzol® reagent (Invitrogen) according to the manufacturer's protocols and measured using a NanoDrop (ThermoScientific). ATDC5 migration was analyzed via a scratch test. […] The open scratch area was quantified with ImageJ (n=6/treatment group). In micromass cultures, migration was determined by expansion of the micromass itself from day 0 to day 4 or 6. The diameters of untreated micromasses (n=10) were measured and averaged for a baseline size. […]"}, "[10]": {"test_system": "mesenchymal cells of E11.5 mouse embryo limb buds", "experiment": "Cell number, density and whole cellular RNA/DNA content of micromass cultures", "type": "cell-based", "method": "as §1, with “methods. Micromass analysis was performed using ImageJ.” for “methods.”\nas §4, §2"}}, "data": [{"compound": "Cc1cc(N)c2cc(NC(=O)Nc3ccc4nc(C)cc(N)c4c3)ccc2n1", "note": "[Surfen, bis-2-methyl-4-aminoquinolyl-6-carbamide]", "values": [{"measurement": "heparanase mRNA amounts", "setting": "heparanase mRNA", "value": "increased"}, {"measurement": "endogenous heparanase protein levels in ADTC5 cell cultures", "setting": "endogenous heparanase [1]", "value": "very similar response"}, {"measurement": "increase of endogenous heparanase protein levels", "setting": "endogenous heparanase [2]; 7.5 μM, limb micromass cultures, immunoblot densitometry", "value": "about 8 fold"}]}, {"compound": "PI-88", "values": [{"measurement": "alcian blue staining and cartilage gene expression", "setting": "[3]", "value": "only modest reductions"}]}, {"compound": "roneparstat", "values": [{"measurement": "growth of myeloma and sarcoma cells and concomitant angiogenesis", "setting": "[4]", "value": "interfere with the growth"}, {"measurement": "expression of Runx2", "setting": "[5]", "value": "dose-dependently inhibited"}, {"measurement": "expression of aggrecan (Agg)", "setting": "[5]", "value": "dose-dependently inhibited"}, {"measurement": "expression of collagen II (ColII)", "setting": "[5]", "value": "dose-dependently inhibited"}, {"measurement": "levels of endogenous heparanase vs untreated control cultures", "setting": "endogenous heparanase [2]; micromass cultures, immunoblot", "value": "reduced"}, {"measurement": "extent of albuminuria and renal damage", "setting": "[6]", "value": "markedly decreases"}, {"measurement": "anticoagulant properties", "setting": "[7]", "value": "without anticoagulant properties"}, {"measurement": "inhibitory activity on heparanase", "setting": "heparanase", "value": "very strong inhibitory activity"}, {"measurement": "formation of alcian blue-positive chondrogenic nodules", "setting": "[8]", "value": "strongly reduced"}, {"measurement": "overall diameter of micromass cultures vs control", "setting": "[9]", "value": "reduced the overall diameter"}, {"measurement": "overall cell number and density (hematoxylin counterstaining)", "setting": "[10]; after treatment of micromass cultures", "value": "had not changed significantly"}, {"measurement": "whole cellular RNA and DNA content, treated vs untreated", "setting": "[10]; day 4 and day 6", "value": "remained similar"}, {"measurement": "whole cellular RNA and DNA content", "setting": "[10]; maximal 20 μg/ml dose", "value": "minor decreases"}]}]}
